Measured values published in patent US20030114530A1, “Remedies for degenerative arthritis” (priority 2000, published 2003).
Entries after “also recorded” stand apart in the source; their conditions may differ.

Assays:
model of OA in rabbits = conditions: Inflamm Res 44, Suppl 2, S117-118 (1995); cited from earlier work
[1] = system: partial meniscectomy model of osteoarthritis rabbits; test: partial meniscectomy model of osteoarthritis in rabbits; assay type: in vivo, rabbit
Protocol: The effect of the compound on osteoarthritis invented in this study was confirmed by the experiments of a partial meniscectomy model in rabbits.
Female rabbits (Kbs: NZW(Healthy)) were bred for one week before the experiments. The animals were subjected to OA model according to following method.
Each animal was anesthetized with a subcutaneous injection of xylazine (0.05 ml/kg) and an intravenous injection of sodium pentobarbital (20 mg/kg). Right hind knee was shaved, and the width of the knee was measured with the micrometer caliper. It was disinfected with iodine solution. If required local anesthesia was performed with lidocaine hydrochloride.
The skin and articular capsule around right knee were incised at right angle to patellar ligament, the fibular collateral and sesamoid ligament were transected with blades. Adrenaline solution was dropped for the arrest of hemorrhage. The lateral meniscus was partially removed. After washing the operated area with saline solution, the synovium and articular capsule were stitched together. Then muscular coat and skin were put in a suture. […]
After anesthesia with sodium pentobarbital (40 mg/kg), the hind knee was shaved and the width of them was measured with a micrometer caliper. […] After masking, the area of erosion was measured. […]

SMILES	effect on a model of OA (model of OA in rabbits)	erosion area of femur ([1]; 10, 30, 100 or 300 mg/kg twice a day, oral, 7 days after meniscectomy, FIG. 1)	efficacy in the partial meniscectomy OA model ([1]; rabbits, oral twice a day)
COc1ccc(S(=O)(=O)N(Cc2cccnc2)[C@@H](C(=O)NO)C(C)C)cc1.Cl [CGS-27023A, 2(R)-[N-(4-methoxyphenylsulfonyl)-N-(3-pyridylmethyl)amino]-3-methylbutanohydroxamic acid hydrochloride]	effected on a model of OA in rabbits	–	–
CCOCOC[C@H](C[C@H](C)C(=O)NO)NC(=O)c1ccc(Oc2ccccc2)cc1 [compound of formula (I), N-hydroxy-5-ethoxymethyloxy-2(S)-methyl-4(S)-(4-phenoxybenzoyl)aminopentanamide]	–	decreasing effect	shows an efficiency; also recorded: high-effectivity
